We go through four compounds from US11298343B2, “Method for treating thalassemia” (ST. JUDE CHILDREN'S RESEARCH HOSPITAL, priority 2017, dated 2022).

Each structure is given as a SMILES string. Residues, ends and D or L forms follow the SMILES beside them. *: point of attachment. Cbz = O=C(OCc1ccccc1)*

Data set [1] concerns β-thalassemic erythroblasts. The data set can be described thus: Cell survival of treated erythroblasts derived from β-thalassemia patient CD34+ cells. Conditions: added day 13, 48 hours.
Source text: Erythroid differentiation and maturation were monitored by flow cytometry with an LSR/Fortessa cell analyzer (BD Biosciences), using the following antibodies: anti-CD235a (BD Biosciences), anti-Band3, and anti-α4-integrin (Miltenyi).
For data set [2], the system named is electron-dense α-globin inclusions in reticulocytes. Description: Transmission electron microscopy of electron-dense aggregates in reticulocytes of treated mice. Type of data set: in vivo. Conditions: β-thalassemic mice treated with rapamycin vs vehicle-treated controls; P<0.0001. The method, then: Samples were fixed in 2.5% glutaraldehyde in 0.1M sodium cacodylate buffer, pH 7.4, and embedded in 2% low-gelling-temperature agarose. The samples were post-fixed in 2% osmium tetroxide in 0.1M cacodylate buffer with 0.3% potassium ferrocyanide for 1.5 hours, dehydrated through a graded series of ethanol/propylene oxide solutions, then infiltrated with and embedded in epoxy resin, which was polymerized at 70° C. overnight. Semi-thin (0.5 μm) sections were stained with toluidine blue for light microscope examination. Ultra-thin (80 nm) sections were cut and imaged using an FEI Tecnai 200 Kv FEG Transmission Electron Microscope with an ATM XR41 digital camera.
Areas of electron-dense α-globin inclusions in reticulocytes were quantified by automated image analysis of electron micrographs. TEM images were analyzed with the FIJI software program and the Trainable Weka Segmentation plugin to produce pixel-based segmentations in order to quantify differences in the numbers and areas of intracytoplasmic hemoglobin precipitates in thalassemic and non-thalassemic samples (Schindelin, et al. (2012) Nat. Meth. 9:676-682; Arganda-Carreras, et al. (2017) Bioinformatics 33:2424-2426).
(§1) Tissue samples were submitted for pathology analysis.
(§2) Insoluble α-globin in reticulocytes from rapamycin-treated Hbb^Th3/+ mice was decreased by approximately 50% (FIG. 2).

Data set [3] deals with β-thalassemic and control mice. The data set can be described thus: Hematologic analysis of mice treated with rapamycin for 30 days. It is filed as in vivo. The procedure: Mice were analyzed at 1-6 months of age. Blood was collected by submandibular bleeding, anticoagulated with EDTA, and analyzed on a FORCYTE Veterinary Hematology Analyzer.
as §1

Data set [4] relates to free α-globin in β-thalassemic erythroblasts. Description: Free α-globin by HPLC in erythroblasts derived from β-thalassemia patient CD34+ cells. Type of data set: cell-based, human. The following applies: for reduction of free α-globin: rapamycin 10 μM or 20 μM added day 13, HPLC two days later. The procedure: Cells were lysed in Hemolysate reagent (Helena Laboratories, Beaumont, Tex.) and centrifuged. Analysis of globin chains in the supernatant was performed by ion exchange (IE) and reverse phase (RP)-HPLC (Prominence UFLC, Shimadzu). Proteins eluting from the column were quantified by light absorbance at 220, 280, and 415 nm with a diode array detector. The relative amount of free α-globin was calculated from the area of the peak for each condition at 415 nm and normalized based on the DMSO control. The percentage was calculated as follows: % α-globin=[α-chain/ρ-chain (β+γ+δ)×100].

In data set [5] the test system is β-thalassemic and control mice. Description: Pathology grading of erythropoiesis (bone marrow, spleen, liver) in rapamycin-treated mice. It is filed as in vivo. Conditions: rapamycin 30 days; for Bone marrow erythropoiesis grade / Liver erythropoiesis grade / Spleen erythropoiesis grade: grade scale 0-5; for Final grade (sum of the grades of the three tissues): scale 0-15. The method, then: Bright-field images of hematoxylin and eosin-stained tissues were acquired with a Nikon Eclipse Ni microscope. Morphologic phenotyping of all cohorts was carried out in a blinded manner by a board-certified veterinary pathologist. A semi-quantitative grading method was used to highlight visual differences in the erythropoiesis in each cohort. The bone marrow, spleen, and liver were first analyzed separately using the following grading scale: grade 0: within normal limits; grade 1: minimal; grade 2: mild; grade 3: moderate; grade 4: marked; grade 5: severe. A total grade for erythropoiesis (final grade) was calculated based on the sum of the grades for each of the three tissues. […] No mouse received a grade consistent with a severe increase in erythropoiesis.
as §1

Data set [6] has as its system insoluble α-globin. The data set can be described thus: Detection of insoluble α-globin precipitates (TAU gel) in erythroid cells of treated mice. It is filed as in vivo. Conditions: FIG. 2. The method, then: Briefly, 20 μL of washed RBCs (normalized based on the hematocrit percentage) were lysed and centrifuged at 16,000×g at 4° C. for 30 minutes. The pellets were washed extensively in ice-cold 0.05×PBS. Membrane lipids were extracted with 56 mM sodium borate, pH 8.0, containing 0.1% TWEEN-20, at 4° C. Precipitated globins were dissolved in 8M urea, 10% acetic acid, 10% β-mercaptoethanol, and 0.04% pyronin, fractionated by TRITON-acetic acid-urea (TAU) gel electrophoresis, and stained with COOMASSIE brilliant blue. Soluble hemoglobin fractions were analyzed and quantified as loading controls by using AlphaView SA 3.4.0 (ProteinSimple).
as §1, §2

For data set [7], the system named is Hbb^Th3/+ reticulocytes. The data set can be described thus: Reticulocyte pulse-chase analysis of insoluble α-globin turnover with inhibitors. Conditions: 6 hours chase, 10 μM MG132, 100 μM chloroquine or 0.2 μM bafilomycin A1. Type of data set: cell-based, mice. The method, then: Briefly, reticulocytes were pulse-labeled with ^35S-cysteine and ^35S-methionine for 30 minutes then chased with unlabeled amino acids±proteasome inhibitor (10 μM MG132) and/or lysosome inhibitor (100 μM chloroquine or 0.2 μM bafilomycin A1). Insoluble α-globin was isolated by TAU gel electrophoresis, analyzed by autoradiography, and quantified using AlphaView SA 3.4.0 (ProteinSimple).
To investigate how the depletion of ULK1 or ATG5 affects the turnover of insoluble α-globin in β-thalassemia, mutant reticulocytes were pulse-labeled with ^35S-labeled amino acids, chased for various times with unlabeled amino acids with or without various inhibitors, and the soluble and insoluble nascent radiolabeled α-globin in cell lysates was quantified.

For data set [8], the system named is Hbb^Th3/+ mice. The following applies: systemic administration (Khandros 2012); cited from earlier work.
[9] abbreviates: Hbb^+/+ Ulk1^+/+ mice, rapamycin 4 mg/kg i.p. daily 30 days, mean ± SD.
The mark [10] stands for this setting: Hbb^Th3/+ Ulk1^+/+ mice, rapamycin 4 mg/kg i.p. daily 30 days, mean ± SD.
[11] abbreviates: Hbb^Th3/+ Ulk1^−/− mice, rapamycin 4 mg/kg i.p. daily 30 days, mean ± SD.
[12] abbreviates: β-thalassemic mice, rapamycin 4 mg/kg i.p. daily 30 days vs vehicle, P<0.001.

In the case of `CO[C@H]1C[C@@H]2CC[C@@H](C)[C@@](O)(O2)C(=O)C(=O)N2CCCC[C@H]2C(=O)O[C@H]([C@H](C)C[C@@H]2CC[C@@H](O)[C@H](OC)C2)CC(=O)[C@H](C)/C=C(\C)[C@@H](O)[C@@H](OC)C(=O)[C@H](C)C[C@H](C)/C=C/C=C/C=C/1C` [rapamycin], the “effect on cell survival” value in data set [1] was “no deleterious effect on cell survival”. The “reduction in electron-dense aggregates in reticulocytes (TEM)” value in data set [2] is “approximately 60%”. In addition, in data set [3] (setting [9]), the Hb is on record as 13.78 ± 1.99^ns g/dL, the Hct was 40.98 ± 5.75^ns %, the MCH is listed as 14.53 ± 0.53^ns pg and the MCHC is reported as 33.66 ± 0.76^ns g/dL. In addition, in data set [3] (setting [9]), the MCV is listed as 42.89 ± 1.61^ns fL, the RDW is listed as 14.40 ± 0.91^ns % and the Reticulocytes was 2.90 ± 1.21^ns %. In data set [3] (setting [10]), this compound returned a Hb of 10.33 ± 1.07 g/dL, a Hct of 29.42 ± 3.59 %, an MCH of 11.56 ± 1.21 pg and an MCHC of 35.54 ± 1.01 g/dL. In addition, in data set [3] (setting [10]), the MCV was found to be 32.67 ± 3.02 fL, the RDW is given as 31.05 ± 5.23 % and the Reticulocytes is 13.06 ± 6.67 %. Further, in data set [3] (setting [11]), the Hct is 25.42 ± 4.59^ns %, the MCH was 15.08 ± 1.31^ns pg, the MCHC is given as 34.99 ± 2.14^ns g/dL and the MCV was determined as 43.03 ± 1.62 fL. Further, in data set [3] (setting [11]), the RBC is given as 5.81 ± 0.99^ns ×10^6/μL, the RDW is 39.73 ± 0.66^ns % and the Reticulocytes is listed as 34.35 ± 2.78^ns %. Besides, the “effect on RBC indices or erythropoiesis” value in data set [3] (wild-type or Hbb^Th3/+Ulk1^−/− mice) is “no effect”. Further, in data set [3] (setting [12]), the “decrease in reticulocyte count” value turned out to be 44% and the “increase in RBC count” value is recorded as 27%. Besides, the “increase in Hb” value in data set [3] (β-thalassemic mice, rapamycin 4 mg/kg i.p. daily 30 days vs vehicle, P<0.05) came out at 10%. Moreover, the “reduction of free α-globin” value in data set [4] (NTD β-thalassemic erythroblasts, P<0.001) is listed as 85%. Besides, the “reduction of free α-globin” value in data set [4] (TD β-thalassemia erythroblasts, P<0.0001) amounted to 40%. In addition, in data set [5] (Hbb^+/+ Ulk1^+/+ mice), the “Bone marrow erythropoiesis grade” value was 0.00 ± 0.00^ns, the Liver erythropoiesis grade is 0.44 ± 0.53^ns, the Spleen erythropoiesis grade is recorded as 0.00 ± 0.00^ns and the “Final grade (sum of the grades of the three tissues)” value (from here on “Final grade”) was 0.44 ± 0.53^ns. In data set [5] (Hbb^Th3/+ Ulk1^+/+ mice), the “Bone marrow erythropoiesis grade” value is 1.75 ± 1.67^ns, the Liver erythropoiesis grade is recorded as 0.87 ± 0.35^ns, the Spleen erythropoiesis grade is on record as 2.37 ± 0.52 and the “Final grade” value is recorded as 5.00 ± 1.85. Also, in data set [5] (Hbb^Th3/+ Ulk1^−/− mice), the “Bone marrow erythropoiesis grade” value is listed as 3.30 ± 0.48^ns, the Liver erythropoiesis grade is given as 1.10 ± 0.31, the Spleen erythropoiesis grade is given as 3.20 ± 0.79^ns and the “Final grade” value was 7.60 ± 1.07^ns. In addition, the “effect on the accumulation of insoluble α-globin” value in data set [6] (Hbb^Th3/+Ulk1^−/− mice) is given as “no effect”. The “decrease of insoluble α-globin in reticulocytes” value in data set [6] (rapamycin-treated Hbb^Th3/+ mice) is “approximately 50%”.
As to `CO/C1=C\C(C)=C\[C@@H](C)[C@@H](O)[C@@H](C)C/C(C)=C/C=C/[C@H](OC)[C@@H]([C@@H](C)[C@@H](O)[C@H](C)[C@@]2(O)C[C@@H](O)[C@H](C)[C@@H](C(C)C)O2)OC1=O` [bafilomycin A1], the “sensitivity of clearance of labeled insoluble α-globin to the inhibitor” value in data set [7] was “sensitive”.
Regarding `CC(C)C[C@@H](C=O)NC(=O)[C@H](CC(C)C)NC(=O)[C@H](CC(C)C)NC(=O)OCc1ccccc1` [MG132] (Cbz-Leu-Leu-Leu-aldehyde), the “effect on cell survival” value in data set [1] is “induced cell death”. For the same compound, in data set [7], the “sensitivity of clearance of labeled insoluble α-globin to the inhibitor” value is given as “sensitive”. Also, the “free α-globin levels” value in data set [4] (β-thalassemic erythroblasts, MG132 1 μM or 2.5 μM added day 13, HPLC two days later) is on record as “raised free α-globin levels”.
Regarding `CC(C)C[C@H](NC(=O)[C@H](Cc1ccccc1)NC(=O)c1cnccn1)B(O)O` [bortezomib], in data set [8], the “induction of autophagy and heat-shock proteins” value was “induced both autophagy and heat-shock proteins”; the “insoluble α-globin” value was “no net increase in insoluble α-globin”.
